Here are results for 2 compounds from article PMC11432795, “Mutagenesis of the Peptide Inhibitor of ASIC3 Channel Introduces Binding to Thumb Domain of ASIC1a but Reduces Analgesic Activity” (Marine Drugs, 2024).

Positions of bridges follow the written chain, without caps; N, C: chain ends. Residues, ends and D or L forms follow the SMILES beside them.

One assay addresses T1, rat ASIC3 channel (Rattus norvegicus, UniProt O35240).
T1 construct: expressed in transfected cells; host or cells: Xenopus laevis oocytes injected with mRNA made from pcDNA3.1-rat ASIC3
T1 sequence (O35240 1-533): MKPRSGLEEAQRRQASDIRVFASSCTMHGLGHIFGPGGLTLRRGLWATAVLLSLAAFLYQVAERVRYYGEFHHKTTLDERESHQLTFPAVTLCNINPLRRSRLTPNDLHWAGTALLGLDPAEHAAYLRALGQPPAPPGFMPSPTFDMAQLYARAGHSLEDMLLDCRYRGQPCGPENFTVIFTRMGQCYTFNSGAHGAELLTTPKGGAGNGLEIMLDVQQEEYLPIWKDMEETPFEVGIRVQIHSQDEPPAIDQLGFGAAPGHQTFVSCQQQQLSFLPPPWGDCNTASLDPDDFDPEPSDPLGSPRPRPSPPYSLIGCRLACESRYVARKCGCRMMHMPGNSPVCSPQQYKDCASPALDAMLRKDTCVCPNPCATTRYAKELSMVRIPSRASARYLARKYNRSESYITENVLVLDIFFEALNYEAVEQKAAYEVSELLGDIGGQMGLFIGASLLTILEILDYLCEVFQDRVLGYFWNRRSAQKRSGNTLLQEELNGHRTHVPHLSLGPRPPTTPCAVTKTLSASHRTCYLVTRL
As to the kind of experiment: Two-electrode voltage clamp, rat ASIC3 in X. laevis oocytes. The assay is classed as cell-based. As to conditions: pH 5.5 stimulus, mean ± S.E.M., 5 cells; for nH: inhibition of rat ASIC3, conditioning pH 7.4; for IC50: rat ASIC3, X. laevis oocytes, TEVC, Vh −50 mV, conditioning pH 7.4, peptide 30 s before stimulus. The method, then: Figure 3 The effect of mutant peptides S16K and A23K on rat ASIC1a and ASIC3 channels. […] (B) Dose–response curves for the inhibitory effect of mutant peptides on ASIC1a. Each data point represents data from 5 cells. (C) Representative current traces of Ugr9-1, S16K, and A23K at a concentration of 12.5 µM on ASIC3. […] Each point represents data from 5 cells. The depicted currents were induced by a pH 5.5 stimulus following a conditioning pH of 7.4, with peptides applied for 30 s before the pH stimulus. The holding potential (Vh) was −50 mV, and the time interval between applications ranged from 1 to 2 min. Data are presented as mean ± S.E.M.
A small portion of the ovary was isolated from frogs under anesthesia induced by a 0.17% solution of procaine methanesulphonate (MS222) (Sigma), followed by treatment with collagenase (1 mg/mL) at room temperature for 2 h. Oocytes at stages IV and V, devoid of follicular membranes, were transferred to ND-96 medium (containing 96 mM NaCl, 5 mM HEPES, 2 mM KCl, 1.8 mM CaCl2, 1 mM MgCl2, pH 7.4). mRNA synthesis was performed from pcDNA3.1 vectors (Invitrogen, Carlsbad, CA, USA) containing the rat ASIC3 gene, as well as pCI vectors containing genes for rat ASIC1a, its mutant analogues, and ASIC1b. mRNA (2.5–10 ng) was then injected into the oocytes. For the ASIC1a/3 heteromeric channels, the mRNA encoding the ASIC1a and ASIC3 subunits were injected in a 1:5 ratio, respectively. Subsequently, the oocytes were incubated for 2–3 days at a temperature of 17–19 °C in ND96 medium supplemented with gentamicin and streptomycin (20 µg/mL each).
Whole-cell electrophysiological recordings of ASIC channels were conducted using a two-electrode voltage-clamp setup. Microelectrodes were filled with 3 M KCl. Recordings from oocytes were carried out at a holding potential of −50 mV, with data filtered at 10 Hz and sampled at a rate of 100 Hz using an L780M ADC (LCard, Moscow, Russia). The synchronized delivery of solutions into the chamber and recording of electrophysiological results were carried out using in-house software v.2. Activation of ASIC channels occurred through rapid pH changes in the solution, achieved by replacing the working solution in the chamber with ND96-based solutions at varying pH levels. Specifically, HEPES was substituted with 10 mM MES for pH 5.5–6.5 and MOPS for pH 6.7–7.0.
Fresh peptide solutions were meticulously prepared in ND96 buffer with a pH of 7.43 immediately before experiments, with strict control over the pH levels. Peptides were applied for 30 s at a conditioning pH of 7.43 before acid stimulation of the channel. The interval between applications was maintained at a minimum of 1.5 to 2 min.
Electrophysiological data analysis was conducted using OriginPro 2018 software (OriginLab, Northampton, MA, USA). Dose–response relationships for Ugr9a-1, S16K, and A23K peptides were fitted using a Hill function: F1(x) = A − A/(1 + (x/IC50)^nH), where F1(x) represents the amplitude of the current at concentration x of the peptide, A is the maximum amplitude of the current, IC50 is the half-maximum inhibitory concentration of the peptide, and nH is the Hill coefficient.
For orientation: Two-electrode voltage clamp is typically applied to oocytes expressing channels or transporters.

A short description of assay [1]: CFA-induced hyperalgesia, von Frey test. Type of assay: in vivo, ICR mice. To be noted: for increase in paw withdrawal threshold (PWT), significance by dose: 0.002, 0.02, 0.2 mg/kg i.m. The method, then: (§1) In the CFA-induced hyperalgesia test, where CFA administration induces excess sensitivity to mechanical and thermal stimuli, the analgesic effects of peptides were assessed using von Frey filaments of varying forces (von Frey test) and a hot plate apparatus (hot plate test).
(§2) Adult male ICR mice (Animal Breeding Facility Branch of Shemyakin–Ovchinnikov Institute of Bioorganic Chemistry, Russian Academy of Sciences, Pushchino, Russia), weighing 20–25 g, were utilized. Animals were housed under controlled conditions, with a room temperature of 23 ± 2 °C, a 12 h light–dark cycle, and ad libitum access to food and water. Test substances were dissolved in saline. Peptides (Ugr9-1 and A23K at doses of 0.002, 0.02, and 0.2 mg/kg) and saline (for the control group) were administered intramuscularly 60 min prior to testing.
(§3) The abdominal constriction test of visceral pain (acetic acid-induced writhing pain model) and hyperalgesia induced by complete Freund’s adjuvant (CFA-induced inflammatory pain model) were performed as previously described.
For the von Frey filaments test, mice were positioned in a plastic chamber with access to the inflamed hind paw surface and an electronic von Frey filament (BIO-EVF, Bioseb, Vitrolles, France) was applied with gradually increasing pressure until withdrawal. Data, expressed as the strength of the applied mechanical stimulus from three applications, were averaged, with intervals between exposures of at least 1 min.
(§4) Statistical analysis was conducted using analysis of variance (ANOVA) with post hoc Tukey’s test, and data are presented as mean ± standard deviation (S.D.).

The nature of assay [2]: Acetic acid-induced writhing (AAW pain model). Type of assay: in vivo, ICR mice. To be noted: for reduction of number of writhes, significance by dose: 0.002, 0.02, 0.2 mg/kg i.m. The method, then:
In both the AAW and CFA-induced hyperalgesia, Ugr9-1 and A23K peptides were administered intramuscularly one hour before the experiments at doses of 0.002, 0.02, and 0.2 mg/kg. In the AAW test, analgesic efficacy was evaluated by assessing the reduction in the number of involuntary writhing episodes induced by intraperitoneal injection of a 0.6% acetic acid solution.
as §2, §3, §4
(An intraperitoneal irritant provokes the stretching counted in writhing tests.)

Assay [3] in a line: CFA-induced hyperalgesia, hot plate test. The assay is classed as in vivo, ICR mice. To be noted: hot plate 53 °C; for prolongation of paw withdrawal time, significance by dose: 0.002, 0.02, 0.2 mg/kg i.m. The method, then: as §1, §2, §3, §4
On the technique in general: In hot-plate and tail-flick tests a longer latency is read as antinociception.

Setting [4] is: 0.02 mg/kg i.m., one hour before testing, n = 7.
Where [5] appears, read: one hour before testing, 0.6% acetic acid i.p., n = 7.

At rat ASIC3 channel, `CC[C@H](C)[C@H](N)C(=O)N[C@@H](CO)C(=O)N[C@H](C(=O)N[C@@H](CC(=O)O)C(=O)N1CCC[C@H]1C(=O)N1CCC[C@H]1C(=O)N[C@H]1CSSC[C@@H]2NC(=O)[C@H](CC(N)=O)NC(=O)CNC(=O)[C@H](CO)NC(=O)CNC(=O)[C@H](CC(=O)O)NC(=O)[C@H](CCCNC(=N)N)NC(=O)[C@H](Cc3c[nH]cn3)NC(=O)[C@H](Cc3ccc(O)cc3)NC(=O)[C@H](CSSC[C@@H](C(=O)NCC(=O)N[C@@H](C)C(=O)N[C@H](C(=O)O)C(C)C)NC(=O)CNC(=O)[C@H](Cc3ccc(O)cc3)NC(=O)[C@H](C)NC(=O)[C@H](CC(=O)O)NC(=O)[C@H](Cc3ccc(O)cc3)NC(=O)[C@H](C(C)C)NC2=O)NC(=O)[C@H](Cc2ccccc2)NC(=O)[C@H](CCCNC(=N)N)NC1=O)[C@@H](C)CC` [Ugr9-1] (H-ISIDPPCRFCYHRDGSGNCVYDAYGCGAV-OH; disulfide 7-19, 10-26) returned a nH of 2.33 ± 0.17 and an IC50 of 14.2 ± 0.96 µM. In addition, the “increase in paw withdrawal threshold (maximum effect)” value in assay [1] (setting [4]) was 270%. Moreover, the “increase in paw withdrawal threshold (PWT), significance by dose” value in assay [1] (one hour before testing, n = 7) is reported as “significant increase in paw withdrawal threshold (PWT) at all doses”. Further, in assay [2] (0.02 mg/kg i.m., one hour before testing, 0.6% acetic acid i.p., n = 7), the “inhibition of number of writhes (maximum effect)” value was 30%. Besides, the “reduction of number of writhes, significance by dose” value in assay [2] (setting [5]) is on record as “significantly decreased the number of writhes at all three doses”. Moreover, the “increase in paw withdrawal time (maximum effect)” value in assay [3] (setting [4]) stood at 106%. For the same compound, in assay [3] (one hour before testing, n = 7), the “prolongation of paw withdrawal time, significance by dose” value is on record as “significantly prolonged paw withdrawal time at all doses”.
Turning to `CC[C@H](C)[C@H](N)C(=O)N[C@@H](CO)C(=O)N[C@H](C(=O)N[C@@H](CC(=O)O)C(=O)N1CCC[C@H]1C(=O)N1CCC[C@H]1C(=O)N[C@H]1CSSC[C@@H]2NC(=O)[C@H](CC(N)=O)NC(=O)CNC(=O)[C@H](CO)NC(=O)CNC(=O)[C@H](CC(=O)O)NC(=O)[C@H](CCCNC(=N)N)NC(=O)[C@H](Cc3c[nH]cn3)NC(=O)[C@H](Cc3ccc(O)cc3)NC(=O)[C@H](CSSC[C@@H](C(=O)NCC(=O)N[C@@H](C)C(=O)N[C@H](C(=O)O)C(C)C)NC(=O)CNC(=O)[C@H](Cc3ccc(O)cc3)NC(=O)[C@H](CCCCN)NC(=O)[C@H](CC(=O)O)NC(=O)[C@H](Cc3ccc(O)cc3)NC(=O)[C@H](C(C)C)NC2=O)NC(=O)[C@H](Cc2ccccc2)NC(=O)[C@H](CCCNC(=N)N)NC1=O)[C@@H](C)CC` [A23K] (H-ISIDPPCRFCYHRDGSGNCVYDKYGCGAV-OH; disulfide 7-19, 10-26), at rat ASIC3 channel, the nH is recorded as 3.58 ± 0.08 and the IC50 is 9.39 µM. In addition, the “increase in PWT compared to Ugr9-1” value in assay [1] (0.02 mg/kg i.m., versus Ugr9-1) is reported as “more than three times less effectively than Ugr9-1”. Also, in assay [1] (one hour before testing, n = 7), the “increase in paw withdrawal threshold (PWT), significance by dose” value is “significantly increased PWT only at 0.02 mg/kg”. Moreover, the “reduction of writhing, times less effective than Ugr9-1” value in assay [2] (0.02 mg/kg i.m., versus Ugr9-1) amounted to 1.5 times. Moreover, the “reduction of number of writhes, significance by dose” value in assay [2] (setting [5]) is on record as “significant reduction in writhing episodes only at a dose of 0.02 mg/kg”. Further, the “prolongation of paw withdrawal time, significance by dose” value in assay [3] (one hour before testing, n = 7) was “effects only at doses of 0.02 and 0.2 mg/kg”. For the same compound, in assay [3] (versus Ugr9-1), the “paw withdrawal time effect compared to Ugr9-1” value was “two times less effective than Ugr9-1”.

As a reminder, the IC50 is the concentration that gives 50% inhibition.
